Measurements reported in patent US20240074986A1, “Methods of Enhancing Non-Viral Gene Therapy” (Spark Therapeutics, Inc., priority 2020, published 2024).

How the values were obtained:
CLEC4F+ Kupffer cells = test: Liver histology, anti-CLEC4F staining, depletion efficacy (Example 3); assay type: in vivo, Balb/C mice; conditions: for Kupffer cell depletion (CLEC4F+ staining): clodronate IV 50 or 17 mpk, anti-CD115 IP 12 mpk 1 or 4 doses, pexidartinib oral gavage 100 mpk 4 doses, FIG. 5A
Description: (§1) Balb/C mice were treated with the immune cell depletion agents clodronate, anti-CD115 antibody (as described in Example 1), or pexidartinib. Clodronate was provided by IV administration at 50 mpk (1.25 mg) or 17 mpk (425 μg), anti-CD115 antibody was provided by IP administration at 12 mpk (300 μg) 1 dose vs 4 doses. Anti-CD115 antibody was as described in Example 1. Pexidartinib was provided by oral gavage administration at 100 mpk (2.5 mg) 4 doses. A no-treatment mice group was used as a control. Each group contained 5 male BALB/c mice.
(§2) After the treatment, mice were euthanized and the liver samples were harvested for histology. Liver samples were stained with either anti-CLEC4F or anti-CD68 mouse antibody. Individual scores of the treatment groups were normalized by the no-treatment group to calculate depletion efficacy.
(§3) Pexidartinib was mixed with mice chow at 400 mg Pex/kg chow. Liver histology was taken after mice were fed with Pex-chow for 7 or 21 days.

CD68+ macrophages = test: Liver histology, anti-CD68 staining, depletion efficacy (Example 3); assay type: in vivo, Balb/C mice; conditions: for CD68+ macrophage depletion: clodronate IV 50 or 17 mpk, anti-CD115 IP 12 mpk 1 or 4 doses, pexidartinib oral gavage 100 mpk 4 doses, FIG. 5B
Description: as §1, §2, §3

INF-γ and/or IL-6 = test: Plasma pro-inflammatory cytokines by MSD 6 hours post-dose (Example 2); assay type: in vivo, mice (Balb/c); conditions: 6-hour post-dose plasma; SPK-LNP1 50 μg; FIGS. 3A and 3B
Description: The effects of immune cell depletion on cytokine release and on transgene expression were studied using an anti-CD115 antibody in combination with clodronate, which is a toxic agent encapsulated in liposomes to induce monocyte/macrophage apoptosis.
FIX transgene DNA plasmid (50 μg), formulated in lipid nanoparticle (LNP) delivery vehicles (SPK-LNP1), was dosed in mice (n=5; Balb/c; Jackson Laboratory) by intravenous administration alone, or in combination with anti-CD115 antibody and/or clodronate (purchased from Liposoma), as outlined in Table 3. SPK-LNP-1 had the following composition: C12-200 lipid at 35%; DOPE at 16%; cholesterol at 46.5%; and C14-PEG2000 (Avanti® Polar Lipids) at 2.5%. DNA and anti-CD115 antibody were as described in Example 1.
6-hour post-dose plasma samples were analyzed for a panel of pro-inflammatory cytokines using MSD: IL-6, IFN-γ, TNF-α and IL-1β.

hFIX = hFIX levels in mouse plasma by ELISA after pexidartinib chow and DNA-LNP-5 (Example 4); assay type: in vivo; conditions: DNA-LNP-5 10 μg per mouse; 1-4 weeks after dosing; Pex chow 7 or 21 days before dosing or regular chow; FIG. 7
Description: Pexidartinib was mixed with mice chow at 400 mg Pex/kg chow. In group 2 and group 3, mice chow was replaced with Pex chow at 21 days and 7 days before DNA-LNP-5 dosing.
Mice in group 1 were fed with regular chow throughout the study and served as controls. Mice were dosed with DNA-LNP-5 (10 μg per mouse). LNP-5 (GenVoy™ LNP) was obtained from Precision NanoSystems Inc.) and contained: ionizable lipid at 50%; DSPC at 10%; cholesterol 37.5%; and stabilizer (PEG-Lipid) at 2.5% (see Roces et al., Pharmaceutics, 2020 12, 1095.) DNA was as described in Example 1. hFIX levels in mouse plasma were quantified using ELISA 1-4 weeks after dosing.

Compound | Kupffer cell depletion (CLEC4F+ staining) (CLEC4F+ Kupffer cells) | CD68+ macrophage depletion (CD68+ macrophages) | cytokine (INF-γ and/or IL-6) levels following DNA-LNP administration (INF-γ and/or IL-6) | depletion of CLEC4F+ Kupffer cells (CLEC4F+ Kupffer cells; mixed with mice chow at 400 mg Pex/kg chow, fed 7 or 21 days, FIG. 6B) | depletion of CD68+ macrophages (CD68+ macrophages; mixed with mice chow at 400 mg Pex/kg chow, fed 7 or 21 days, FIG. 6A) | hFIX levels in mouse plasma (hFIX)
O=P(O)(O)C(Cl)(Cl)P(=O)(O)O [clodronate] | significant effect | significant effect | moderately reduced | – | – | –
FC(F)(F)c1ccc(CNc2ccc(Cc3c[nH]c4ncc(Cl)cc34)cn2)cn1 [Pexidartinib, pexidartinib] | small impact | no impact | – | significant depletion | significant depletion | a few mice in Pex-treated groups showed detectable expression
